Values after ≈ are worked out from the molar mass of the structure shown. Like-named read-outs stand apart in the source and are kept apart here.
Key:
[1] = test system: Influenza virus A2 /Adachi; assay: microbe, parasite or virus in culture; format: cell-based
[2] = test system: Influenza virus A2 /Adachi; assay: microbe, parasite or virus in culture; format: cell-based; remark: listed apart in the source
Vibrio percolance = assay: Paper disc plate bioassay, inhibition zone; format: cell-based; settings: paper disc plate method, read-out: diameter of inhibition zone
Source text: For assay of the substance SF-2140, bioassay agar is used as a medium for assay and Vibrio percolance is as a test microbe.

Influenza virus B/Lee [3] = assay: microbe, parasite or virus in culture; format: cell-based
Sarcina lutea = assay: Agar dilution antibacterial MIC; format: cell-based; settings: Micrococcus luteus; agar dilution method; read-out: Minimum Inhibitory Concentration
[4] = test system: Influenza virus Horse/Miami; assay: microbe, parasite or virus in culture; format: cell-based
[5] = test system: Staphylococcus aureus Smith; assay: Agar dilution antibacterial MIC; format: cell-based; settings: agar dilution method, read-out: Minimum Inhibitory Concentration
[6] = Serum level after intraperitoneal administration; format: in vivo; settings: 200 mg/kg intraperitoneal (1% CMC), biological assay, mice n=5
Protocol: | Dose: 200 mg/kg (1% CMC)

Stability = format: physicochemical
Source text: (13) Stability: Stable under acidic to neutral condition, instable under alkaline condition.

[7] = test system: Citrobacter freundii GN 346; assay: Agar dilution antibacterial MIC; format: cell-based; settings: GN346, read-out: Minimum Inhibitory Concentration
[8] = test system: Staphylococcus aureus 209P; assay: Agar dilution antibacterial MIC; format: cell-based; settings: agar dilution method, read-out: Minimum Inhibitory Concentration
[9] = test system: Salmonella enteritidis No. 11; assay: Agar dilution antibacterial MIC; format: cell-based; settings: Salmonella enterica, agar dilution method, read-out: Minimum Inhibitory Concentration
[10] = test system: Influenza virus Horse/Miami; assay: microbe, parasite or virus in culture; format: cell-based; remark: listed apart in the source
[11] = test system: Streptococcus faecalis ATCC 8043; assay: Agar dilution antibacterial MIC; format: cell-based; settings: Enterococcus faecalis, ATCC8043; agar dilution method; read-out: Minimum Inhibitory Concentration
Salmonella typhi 0-901-W = assay: Agar dilution antibacterial MIC; format: cell-based; settings: Salmonella enterica, read-out: Minimum Inhibitory Concentration
[12] = test system: Baciullus anthrasis No. 119; assay: Agar dilution antibacterial MIC; format: cell-based; settings: read-out: Minimum Inhibitory Concentration
in vitro = settings: chicken, chorioallantoic membrane
Solubility = format: physicochemical
[13] = test system: Klebsiella pneumoniae PCI 602; assay: Agar dilution antibacterial MIC; format: cell-based; settings: PCI602, agar dilution method, read-out: Minimum Inhibitory Concentration
Proteus vulgaris OX-19 = assay: Agar dilution antibacterial MIC; format: cell-based; settings: OX19, agar dilution method, read-out: Minimum Inhibitory Concentration
Acute toxicity (LD50) = settings: mouse, in vivo, ip; mice, intraperitoneal
Protocol: Acute toxicity (LD50 value) of the substance SF-2140, the active ingredient in the present antiviral agent, was not less than 500 mg/kg in mice via intraperitoneal administration.

[14] = Serum level after oral administration; format: in vivo; settings: 125 mg/kg oral (5% arabin gum), HPLC, mice n=3
Protocol: | Dose: 125 mg/kg (5% arabin gum)

Influenza virus A1 /FM-1 [15] = assay: microbe, parasite or virus in culture; format: cell-based
Influenza virus B/Lee [16] = assay: microbe, parasite or virus in culture; format: cell-based; settings: unidentified influenza virus, 48 h, read-out: 50% Virus proliferation inhibiting conc.
[17] = test system: Escherichia coli W3630 RGN 823; assay: Agar dilution antibacterial MIC; format: cell-based; settings: W3630RGN823, read-out: Minimum Inhibitory Concentration
[18] = test system: Pseudomonas aeruginosa MB 3829; assay: Agar dilution antibacterial MIC; format: cell-based; settings: MB3829, agar dilution method, read-out: Minimum Inhibitory Concentration
Influenza virus A1 /FM-1 [19] = assay: microbe, parasite or virus in culture; format: cell-based; remark: listed apart in the source
[20] = test system: Pseudomonas cepacia M-0527; assay: Agar dilution antibacterial MIC; format: cell-based; settings: Burkholderia cepacia, M0527; agar dilution method; read-out: Minimum Inhibitory Concentration
Escherichia coli No. 29 = assay: Agar dilution antibacterial MIC; format: cell-based; settings: agar dilution method, read-out: Minimum Inhibitory Concentration
Proteus morganii Kono = assay: Agar dilution antibacterial MIC; format: cell-based; settings: Morganella morganii; agar dilution method; read-out: Minimum Inhibitory Concentration
[21] = test system: Shigella sonnei EW33 type I; assay: Agar dilution antibacterial MIC; format: cell-based; settings: EW33TYPEI, agar dilution method, read-out: Minimum Inhibitory Concentration
[22] = unidentified influenza virus, 2 h, read-out: 50% Virucidal conc.
[23] = unidentified influenza virus, 48 h, read-out: 50% Virus proliferation inhibiting conc.

Question: With `COC(=O)C1CC(O)C(O)C(n2cc(CC#N)c3c(OC)cccc32)O1` (stereo not shown) [SF-2140] as the compound, how does the “virucidal activity (in words)” value [1] read?
Answer: potent virucidal activity

Question: What about the IC50 [1, 22] of the same compound?
Answer: 58.8 µg/mL (≈ 163 µM)

Question: What about the “proliferation inhibiting activity (in words)” value [2] of the same compound?
Answer: showed a proliferation inhibiting activity

Question: What about the “virus proliferation inhibition index” value ([2]; A2 /Adachi, 50% toxicity conc. / 50% proliferation inhibiting conc., 2880 min) of the same compound?
Answer: > 10.0

Question: What about the IC50 [2, 23] of the same compound?
Answer: 100 µg/mL (≈ 277 µM)

Question: What about the zone of inhibition at 125 µg/mL (Vibrio percolance; 125 mcg/ml) of the same compound?
Answer: 14.6 mm

Question: What about the zone of inhibition at 1000 µg/mL (Vibrio percolance; 1000 mcg/ml) of the same compound?
Answer: 22 mm

Question: And the “virucidal activity (in words)” value (Influenza virus B/Lee [3])?
Answer: potent virucidal activity

Question: What about the IC50 (Influenza virus B/Lee [3]; [22]) of the same compound?
Answer: 46.4 µg/mL (≈ 129 µM)

Question: What about the MIC (Sarcina lutea) of the same compound?
Answer: 50 µg/mL (≈ 139 µM)

Question: What about the “proliferation inhibiting activity (in words)” value [4] of the same compound?
Answer: showed a proliferation inhibiting activity

Question: And the “virus proliferation inhibition index” value ([4]; Horse/Miami, 50% toxicity conc. / 50% proliferation inhibiting conc., 2880 min)?
Answer: > 56.5

Question: And the IC50 [4, 23]?
Answer: 17.7 µg/mL (≈ 49.1 µM)

Question: And the MIC [5]?
Answer: 100 µg/mL (≈ 277 µM)

Question: And the Serum concentration ([6]; 90 min)?
Answer: 0 ng/mL

Question: What about the concentration at 5 min ([6]; mouse, serum, ip, 5 min) of the same compound?
Answer: 30000 ng/mL

Question: And the concentration at 10 min ([6]; mouse, serum, ip, 10 min)?
Answer: 42000 ng/mL

Question: What about the concentration at 20 min ([6]; mouse, serum, ip, 20 min) of the same compound?
Answer: 55000 ng/mL

Question: And the concentration at 0.5 h ([6]; mouse, serum, ip, 30 min)?
Answer: 45000 ng/mL

Question: And the concentration at 1 h ([6]; mouse, serum, ip, 60 min)?
Answer: 27000 ng/mL

Question: And the Stability (Stability; acidic to neutral condition)?
Answer: Stable

Question: And the Stability (Stability; alkaline condition)?
Answer: instable

Question: What about the MIC [7] of the same compound?
Answer: > 100 µg/mL

Question: And the MIC [8]?
Answer: 25 µg/mL (≈ 69.4 µM)

Question: And the MIC [9]?
Answer: 12.5 µg/mL (≈ 34.7 µM)

Question: And the “virucidal activity (in words)” value [10]?
Answer: potent virucidal activity

Question: And the IC50 [10, 22]?
Answer: 4.6 µg/mL (≈ 12.8 µM)

Question: And the MIC [11]?
Answer: 12.5 µg/mL (≈ 34.7 µM)

Question: What about the MIC (Salmonella typhi 0-901-W) of the same compound?
Answer: 100 µg/mL (≈ 277 µM)

Question: And the MIC [12]?
Answer: 6.25 µg/mL (≈ 17.3 µM)

Question: And the CC50 at 24 h (in vitro)?
Answer: > 1000 µg/mL

Question: And the Solubility (Solubility; Ethyl acetate, benzene, acetone, chloroform)?
Answer: Soluble

Question: And the Solubility (Solubility; Hexane, water)?
Answer: Substantially insoluble

Question: What about the Solubility (Solubility; Lower alcohol, e.g. methanol and ethanol) of the same compound?
Answer: Easily soluble

Question: And the MIC [13]?
Answer: > 100 µg/mL

Question: And the MIC (Proteus vulgaris OX-19)?
Answer: 25 µg/mL (≈ 69.4 µM)

Question: What about the LD50 (Acute toxicity (LD50)) of the same compound?
Answer: ≥ 500 mg/kg

Question: And the Serum concentration ([14]; 180 min)?
Answer: 0 ng/mL

Question: And the concentration at 0.5 h ([14]; mouse, serum, 30 min)?
Answer: 15000 ng/mL

Question: What about the concentration at 1 h ([14]; mouse, serum, 60 min) of the same compound?
Answer: 7000 ng/mL

Question: What about the “proliferation inhibiting activity (in words)” value (Influenza virus A1 /FM-1 [15]) of the same compound?
Answer: showed a proliferation inhibiting activity

Question: And the “virus proliferation inhibition index” value (Influenza virus A1 /FM-1 [15]; A1 /FM-1, 50% toxicity conc. / 50% proliferation inhibiting conc., 2880 min)?
Answer: > 20.0

Question: And the IC50 (Influenza virus A1 /FM-1 [15]; [23])?
Answer: 50.5 µg/mL (≈ 140 µM)

Question: And the IC50 (Influenza virus B/Lee [16])?
Answer: > 200 µg/mL

Question: What about the MIC [17] of the same compound?
Answer: 50 µg/mL (≈ 139 µM)

Question: What about the MIC [18] of the same compound?
Answer: > 100 µg/mL

Question: What about the “virucidal activity (in words)” value (Influenza virus A1 /FM-1 [19]) of the same compound?
Answer: potent virucidal activity

Question: What about the IC50 (Influenza virus A1 /FM-1 [19]; [22]) of the same compound?
Answer: 4.6 µg/mL (≈ 12.8 µM)

Question: And the MIC [20]?
Answer: 100 µg/mL (≈ 277 µM)

Question: And the MIC (Escherichia coli No. 29)?
Answer: > 100 µg/mL

Question: What about the MIC (Proteus morganii Kono) of the same compound?
Answer: > 100 µg/mL

Question: What about the MIC [21] of the same compound?
Answer: > 100 µg/mL

Source: patent publication US4536398A, “Antiviral agents” (Meiji Seika Kaisha Ltd., priority 1982, dated 1985)
